Values quoted from earlier work, collected in patent publication US8337481B2, “Method for treating otitis externa” (priority 2005, dated 2012).

**Q.** Which “Biological Half Life” value does the source give for `C[C@H]1C[C@@H]2[C@H]([C@@H](O)C[C@@]3(C)[C@H]2CC[C@]3(O)C(=O)CO)[C@@]2(C)C=CC(=O)C=C12` [Methyl-prednisolone, methylprednisolone] here?
**A.** 18-36 Hours

**Q.** With `C[C@]12CCC(=O)C=C1CC[C@@H]1[C@@H]2[C@@H](O)C[C@@]2(C)[C@H]1CC[C@]2(O)C(=O)CO` [hydrocortisone] as the molecule, how does the “Biological Half Life” value read?
**A.** 8-12 Hours

**Q.** Which “Biological Half Life” value does the source give for `C[C@]12C=CC(=O)C=C1CC[C@@H]1[C@@H]2[C@@H](O)C[C@@]2(C)[C@H]1CC[C@]2(O)C(=O)CO` [prednisolone] here?
**A.** 18-36 Hours

**Q.** For `C[C@]12C=CC(=O)C=C1CC[C@H]1[C@@H]3C[C@@H](O)[C@](O)(C(=O)CO)[C@@]3(C)C[C@H](O)[C@@]12F` [triamcinolone], which “Biological Half Life” value is on record?
**A.** 18-36 Hours
